# Measured values taken from patent publication US11180495B2 (Abbisko Therapeutics Co., Ltd., priority 2017, dated 2021).
# Where two headings read alike, the source gives them in different places.
# What was measured:
# Assay type in all cases: cell-based
# [1] = test system: M-07e human cytomegalic leukemia cells; assay: KIT-related cell proliferation experiment (Cell Titer Glo); settings: 72 h, M-07e cells, SCF, 3 days, CTG, read-out: Cytological experiment KIT IC50
# Experimental: (§1) Functional effects of compounds on the proliferation of several cell lines were evaluated by Cell Titer Glo (CTG) studies in the present invention, and effects of the compounds on the proliferation of different cells were evaluated to determine the selectivity degree of the compounds. In the study, M-07e human cytomegalic leukemia cells (cat. No. CBP60791) from Nanjing Kebai Biotechnology Co., Ltd. were cultured in an incubator under conditions of RPMI1640 (Gibco, cat. No. 11875-119), 20% fetal bovine serum (Gibco, 10099-141), human 10 ng/mL GM-CSF granulocyte macrophage colony-stimulating factors (R&D, cat. No. 215-GM-010), 37° C. and 5% CO2; and Kasumi-1 human acute myeloblastic leukemia cells (cat. No. CBP60524) were cultured in an incubator under conditions of RPMI1640 (Gibco, cat. No. 11875-119), 20% fetal bovine serum (Gibco, 10099-141), 37° C. and 5% CO2; NCI-H1703 human non-small cell lung squamous carcinoma cells (cat. No. CBP60115) were cultured in an incubator under conditions of RPMI1640 (Gibco, cat. No. 11875-119), 10% fetal bovine serum (Gibco, 10099-141), 37° C. and 5% CO2; and MV-4-11 human acute monocytic leukemia cells (cat. No. CBP60522) were cultured in an incubator under conditions of IMDM (Invitrogen, cat. No. 12440053), 20% fetal bovine serum (Gibco, 10099-141), 37° C. and 5% CO2. Since ATP is an index for viable cell metabolism, CTG (Promega, #G7573) reagent is a homogeneous detection method for detecting the number of viable cells in the culture by quantifying ATP. Therefore, compound-mediated inhibition for cell proliferation/survival was evaluated by quantifying ATP content in cells, and the specific experimental process was as follows.
# I) M-07e Human Cytomegalic Leukemia Cell: • 1. The cells were plated into a tissue-culture-medium-treated 96-well plate (Costar #3904) with 3500 cells/well/80 μL fresh culture medium, and cultured for 24 hrs; • 2. the next day, 10 μL of culture medium containing testing compound with 10-fold of final concentration was added to each well; • 3.
# [2] = test system: M-NFS-60 mouse myeloid leukemia lymphocytes; assay: CSF-1R-related cell proliferation experiment (Cell Titer Glo); settings: 72 h, M-NFS-60 cells, 3 days, CTG
# Experimental: Functional effects of compounds on cell proliferation were evaluated by using Cell Titer Glo (CTG) study in the present invention. M-NFS-60 mouse myeloid leukemia lymphocytes (cat. No. CCBJ078) from National Institutes For Food and Drug Control were cultured in the incubator under conditions of RPMI 1640 (Gibco, cat. No. 11875-119), 10% fetal bovine serum (Gibco, 10099-141), human 10 ng/mL M-CSF macrophage colony-stimulating factor (R&D, cat. No. MVN0915101), 37° C. and 5% CO2. Since ATP is an index for viable cell metabolism, CTG (Promega, #G7573) reagent is a homogeneous detection method for detecting the number of viable cells in the culture by quantifying ATP. Therefore, compound-mediated inhibition for cell proliferation/survival was evaluated by quantifying ATP in cells, and the specific experimental process was as follows: • 1. The cells were plated into a tissue-culture-medium-treated 96-well plate (Costar #3904) with 5,000 cells/well/80 μL fresh culture medium: • 2. 24 hours later, 10 μL culture medium containing testing compound with 10-fold of final concentration was added to each well; • 3. 10 μL of culture medium containing M-CSF with 10-fold of the final concentration was then added to each well: • 4. dosage effect was evaluated by testing the 3-fold serial dilutions of the compound; • 5. after the cells were incubated for 3 days at 37° C. and 5% CO2, the inhibition on cell survival was quantified after 50 μL of CTG was added and the luminescence assay was performed; • 6. the compound concentration leading to half maximal inhibitory (IC50) and the compound concentration leading to absolute half maximal inhibitory (Absolute IC50) were measured by a plate reader (M1000, Tecan) and a four-parameter curve fit in Graphpad Prism 7. D. CSF-1R-Related Cell Proliferation Experiment
# [3] = test system: MV-4-11 human acute monocytic leukemia cells; assay: FLT3-related cell proliferation experiment (Cell Titer Glo); settings: MV4-11, 72 h, MV-4-11 cells, 3 days, CTG, read-out: Cytological experiment FLT3 IC50
# Experimental: as §1
# III) MV-4-11 Human Acute Monocytic Leukemia Cell • 1.
# [4] = absolute half maximal inhibitory concentration, read-out: Cytological experiment CSF-1R Absolute IC50
# [5] = read-out: Cytological experiment CSF1R IC50
IC50 [1] [nM],"IC50 [2, 4] [nM]","IC50 [2, 5] [nM]",IC50 [3] [nM],"IC50 ([2]; Lymphocyte, absolute half maximal inhibitory concentration, read-out: Cytological experiment CSF-1R Absolute IC50) [nM]",SMILES
1510,45.6,54,> 18000,–,"Cc1cnc2[nH]cc(Cc3ccc(-c4cnc5n(c4=O)CCCN5C)nc3C)c2c1 [Example 21, 9-methyl-3-(6-methyl-5-((5-methyl-1H-pyrrolo[2,3-b]pyridin-3-yl)methyl)pyridin-2-yl)-6,7,8,9-tetrahydro-4H-pyrimido[1,2-a]pyrimidin-4-one]"
1200,38.6,46.8,> 6000,–,"Cc1nc(-c2cnc3n(c2=O)CCCN3C)ccc1Cc1c[nH]c2ncc(Cl)cc12 [Example 13, 3-(5-((5-chloro-1H-pyrrolo[2,3-b]pyridin-3-yl)methyl)-6-methylpyridin-2-yl)-9-methyl-6,7,8,9-tetrahydro-4H-pyrimido[1,2-a]pyrimidin-4-one]"
1840,131,140,> 2000,–,Cc1nc(-c2cnc3n(c2=O)CCCN3C)ccc1Cc1c[nH]c2ncc(O)cc12 [Example 23]
10600,105,96.7,> 18000,–,"Cc1nc(-c2cnc3n(c2=O)CCCN3C)ccc1Cc1c[nH]c2ncccc12 [Example 14, 3-(5-((1H-pyrrolo[2,3-b]pyridin-3-yl)methyl)-6-methylpyridin-2-yl)-9-methyl-6,7,8,9-tetrahydro-4H-pyrimido[1,2-a]pyrimidin-4-one]"
38.5,–,6.3,27.4,5,CCN1CCCn2c1ncc(-c1ccc(Cc3c[nH]c4ncc(-c5cnn(C)c5)cc34)c(C)n1)c2=O [Example 17]
1520,39.1,48,> 6000,–,"COc1cnc2[nH]cc(Cc3ccc(-c4cnc5n(c4=O)CCCN5C)nc3C)c2c1 [Example 22, 3-(5-((5-methoxy-1H-pyrrolo[2,3-b]pyridin-3-yl)methyl)-6-methylpyridin-2-yl)-9-methyl-6,7,8,9-tetrahydro-4H-pyrimido[1,2-a]pyrimidin-4-one]"
1120,47.9,77.9,> 2000,–,"Cc1nc(-c2cnc(NC(C)C)[nH]c2=O)ccc1Cc1c[nH]c2ncc(F)cc12 [Example 5, 5-(5-((5-fluoro-1H-pyrrolo[2,3-b]pyridin-3-yl)methyl)-6-methylpyridin-2-yl)-2-(isopropylamino)pyrimidin-4(3H)-one]"
271,71.8,68.6,876,–,"CCN1CCCn2c1ncc(-c1ccc(Cc3c[nH]c4ncc(Cl)cc34)c(C)n1)c2=O [Example 16, 3-(5-((5-chloro-1H-pyrrolo[2,3-b]pyridin-3-yl)methyl)-6-methylpyridin-2-yl)-9-ethyl-6,7,8,9-tetrahydro-4H-pyrimido[1,2-a]pyrimidin-4-one]"
3190,106,92.2,> 18000,–,"Cc1nc(-c2cnc3n(c2=O)CCCN3C)ccc1Cc1c[nH]c2ncc(F)cc12 [Example 20, 3-(5-((5-fluoro-1H-pyrrolo[2,3-b]pyridin-3-yl)methyl)-6-methylpyridin-2-yl)-9-methyl-6,7,8,9-tetrahydro-4H-pyrimido[1,2-a]pyrimidin-4-one]"
232,4.9,5,505,–,"Cc1nc(-c2cnc3n(c2=O)CCCN3C)ccc1Cc1c[nH]c2ncc(-c3cnn(C)c3)cc12 [Example 18, 9-methyl-3-(6-methyl-5-((5-(1-methyl-1H-pyrazol-4-yl)-1H-pyrrolo[2,3-b]pyridin-3-yl)methyl)pyridin-2-yl)-6,7,8,9-tetrahydro-4H-pyrimido[1,2-a]pyrimidin-4-one]"
834,33.7,39.7,1290,–,"Cc1nc(-c2cnc(NC(C)C)n(C)c2=O)ccc1Cc1c[nH]c2ncccc12 [Example 7, 5-(5-((1H-pyrrolo[2,3-b]pyridin-3-yl)methyl)-6-methylpyridin-2-yl)-2-(isopropylamino)-3-methylpyrimidin-4(3H)-one]"
788,83.3,91.3,> 2000,–,"Cc1nc(-c2cnc3n(c2=O)CCC(C)N3C)ccc1Cc1c[nH]c2ncc(Cl)cc12 (stereo not drawn) [Example 15, 3-(5-((5-chloro-1H-pyrrolo[2,3-b]pyridin-3-yl)methyl)-6-methylpyridin-2-yl)-8,9-dimethyl-6,7,8,9-tetrahydro-4H-pyrimido[1,2-a]pyrimidin-4-one]"
